Experimental data as given in ChEMBL document CHEMBL4680331, “Ancistrobrevidines A-C and related naphthylisoquinoline alkaloids with cytotoxic activities against HeLa and pancreatic cancer cells, from the liana Ancistrocladus abbreviatus” (Bioorg Med Chem, 2021).

Columns and labels:
PANC-1 [1] = assay: Anti-austerity activity against nutrient-deprived human PANC-1 cells assessed as cell death incubated for 24 hrs by WST-8 assay; assay type: functional
HeLa = assay: Cytotoxicity against human HeLa cells assessed as decrease in cell viability measured after 72 hrs by WST-8 assay; assay type: functional, cell-based
PANC-1 [2] = assay: Cytotoxicity against nutrient-rich DMEM cultured human PANC-1 cells incubated for 24 hrs by WST-8 assay; assay type: cell-based; settings: panc-1, 24 h
PANC-1 [3] = assay: Induction of morphological changes in human PANC-1 cells cultured in nutrient-deprived medium assessed as cell death at 20 uM measured after 24 hrs by ethidium bromide/acridine orange staining based phase contrast microscopy relative to control; assay type: functional
PANC-1 [4] = assay: Inhibition of cell migration in human PANC1 cells assessed as open wound area at 20 uM cultured in nutrient rich DMEM medium measured after 24 hrs by quantitative real-time imaging based wound healing assay (reference value: 50%); assay type: functional; set-up: scale not given: the % may be the effect or the level left
PANC-1 [5] = assay: Inhibition of cell migration in human PANC1 cells assessed as open wound area at 40 uM cultured in nutrient rich DMEM medium measured after 24 hrs by quantitative real-time imaging based wound healing assay (reference value: 50%); assay type: functional; set-up: scale not given: the % may be the effect or the level left
PANC-1 [6] = assay: Inhibition of cell migration in human PANC1 cells assessed as open wound area at 20 uM cultured in nutrient rich DMEM medium measured after 48 hrs by quantitative real-time imaging based wound healing assay relative to control; assay type: functional; set-up: scale not given: the % may be the effect or the level left
PANC-1 [7] = assay: Inhibition of cell migration in human PANC1 cells assessed as open wound area at 40 uM cultured in nutrient rich DMEM medium measured after 48 hrs by quantitative real-time imaging based wound healing assay relative to control; assay type: functional; set-up: scale not given: the % may be the effect or the level left
PANC-1 [8] = assay: Inhibition of colony formation in human PANC-1 cells at 10 uM cultured in nutrient rich DMEM medium measured after 24 hrs by crystal violet staining based assay relative to control; assay type: functional
PANC-1 [9] = assay: Inhibition of colony formation in human PANC-1 cells at 20 uM cultured in nutrient rich DMEM medium measured after 24 hrs by crystal violet staining based assay relative to control; assay type: functional
PANC-1 [10] = assay: Inhibition of colony formation in human PANC-1 cells at 40 uM cultured in nutrient rich DMEM medium measured after 24 hrs by crystal violet staining based assay relative to control; assay type: functional

Structure (SMILES)	PC50 (PANC-1 [1]) [µM]	IC50 (HeLa) [µM]	further results
COc1cc(OC)c(-c2ccc(OC)c3c(OC)cc(C)cc23)c2c1C(C)=N[C@@H](C)C2 [ANCISTROEALAINE A]	18.8	–	–
COc1cc(OC)c(-c2ccc(O)c3c(OC)cc(C)cc23)c2c1C(C)=N[C@@H](C)C2	13.3	7.2	Activity (HeLa): Dose-dependent effect; Activity (PANC-1 [2]): Non-Toxic; Activity (PANC-1 [3]): 100%; Activity (PANC-1 [4]): 62%; Activity (PANC-1 [5]): 77%; Activity (PANC-1 [6]): 25%; Activity (PANC-1 [7]): 70%; inhibition at 10 µM (PANC-1 [8]): 63%; inhibition at 20 µM (PANC-1 [9]): 95%; inhibition at 40 µM (PANC-1 [10]): 100%
COc1cccc2c1C(=O)C(=O)C(C)=C2c1c(OC)cc(O)c2c1C[C@H](C)N[C@H]2C	28.5	84.3	–
COc1cc(O)c(-c2c(C)cc(OC)c3c(OC)cccc23)c2c1C(C)=N[C@H](C)C2	46.8	> 100	–
COc1cc(OC)c(-c2c(C)cc(OC)c3c(OC)cccc23)c2c1C(C)=N[C@H](C)C2	64.5	46.9	–
COc1cc(C[C@H]2C(=O)OC[C@@H]2Cc2ccc(OC)c(OC)c2)ccc1O [ARCTIGENIN]	0.83	–	–
